Laboratory results reported in patent US11903955B2, “Methods of treating heart failure with reduced ejection fraction” (ASTRAZENECA AB, priority 2019, dated 2024).
Read-outs that look alike come from different tables or passages of the source. Marks after values point to notes of the source that are not given here.

Tested on: patients with chronic heart failure with reduced ejection fraction (LVEF ≤40%)
Conditions: for Cardiovascular death or hospitalization for heart failure, Hazard Ratio (95% CI) / Cardiovascular death, Hazard Ratio (95% CI) / Death from any cause, Hazard Ratio (95% CI) / Hospitalization for heart failure or an urgent heart failure visit, Hazard Ratio (95% CI) / Hospitalization for heart failure, Hazard Ratio (95% CI) / Primary composite outcome, Hazard Ratio (95% CI) / Urgent heart failure visit, Hazard Ratio (95% CI) / Worsening renal function (composite), Hazard Ratio (95% CI) / Total number of (first and recurrent) heart failure hospitalizations and cardiovascular death, rate ratio (95% CI) / HR (95% CI) for primary outcome of CV death or worsening HF: dapagliflozin vs placebo; for Total number of (first and recurrent) heart failure hospitalizations and cardiovascular death, rate ratio (95% CI): LWYY method
Excerpt: Eligibility requirements included an age of at least 18 years, New York Heart Association (NYHA) class II, III, or IV symptoms, and an ejection fraction of 40% or less. […] Patients with atrial fibrillation or atrial flutter on their baseline electrocardiogram were required to have a NT-proBNP level of at least 900 pg/mL, irrespective of history of heart failure hospitalization. Patients were required to receive standard drug and device therapy for heart failure including an angiotensin-converting enzyme (ACE) inhibitor, angiotensin receptor blocker (ARB), or sacubitril/valsartan; a beta-blocker, unless contraindicated or not tolerated, and a mineralocorticoid receptor (MR) […], if considered appropriate. Doses were required to be individually optimized, in accordance with the targets recommended in guidelines, and stable for at least 4 weeks (excepting diuretics, which could be dosed flexibly). Investigators were advised that patients with type 2 diabetes should continue to take their glucose-lowering therapies, but these could be adjusted as required. Specifically, the protocol stated that the dose of insulin, sulfonylurea treatment, or both, could be reduced to minimize the risk of hypoglycemia, for example in patients with a baseline hemoglobin A1C (HbA1c) level below 7%.
All the patients provided written informed consent and entered a 14-day enrollment period during which the trial inclusion and exclusion criteria were checked and baseline information gathered, including findings from clinical examination and laboratory measurements. […] Investigators used an interactive voice or web response system to obtain treatment assignment. Randomization was stratified based on a diagnosis of type 2 diabetes, defined as either an established diagnosis or a HbA1c level of 6.5% or greater (≥48 mmol/mol) confirmed in a central laboratory at screening. Patients were evaluated at 14 days and 60 days after randomization, with a focus on assessment of heart failure and volume status, adverse events, and checking renal function and potassium. Further study visits took place at 4 months and at 4-month intervals thereafter. The protocol required that study drug be permanently discontinued if pregnancy or diabetic ketoacidosis occurred.
The primary outcome was a composite of a first episode of worsening heart failure or death from cardiovascular causes. An episode of worsening heart failure was either an unplanned hospitalization for heart failure or an urgent heart failure visit requiring intravenous therapy.^14 The first of the secondary outcomes was the composite of heart failure hospitalization or cardiovascular death.
Outcomes were adjudicated by a clinical-end-points committee, blinded to treatment assignment, according to prespecified criteria.
Using a two-sided alpha of 5%, we calculated that 844 primary endpoints would provide a statistical power of 90% for the test of the hypothesis. With an expected annual event rate of 11% in the placebo treatment group, approximately 4500 patients were estimated to provide the required number of primary events, based on an anticipated recruitment period of 18 months and an average follow-up period of approximately 24 months. A closed testing procedure was used, including a prespecified hierarchical testing of the primary and secondary endpoints in the order specified above. Type I error was controlled at a two-sided 0.0499 alpha level for multiplicity across primary and secondary endpoints and taking account of one interim efficacy analysis.
Data from all randomly assigned patients were included in the analyses of the primary and secondary outcomes, according to the intention-to-treat principle. Baseline characteristics were summarized as means and standard deviations, medians and inter-quartile ranges, or percentages.

[1] = all patients (N = 2373), listed as dapagliflozin
[2] = all patients, listed as dapagliflozin

CCOc1ccc(Cc2cc([C@@H]3O[C@H](CO)[C@@H](O)[C@H](O)[C@H]3O)ccc2Cl)cc1 [Dapagliflozin, dapagliflozin]
Worsening renal function (composite), No. (%) (all patients (N = 2373)): 28 (1.2) No. (%) | Cardiovascular death or hospitalization for heart failure, No. (%) [1]: 382 No. (%) | Cardiovascular death, No. (%) [1]: 227 No. (%) | Hospitalization for heart failure, No. (%) [1]: 231 (9.7%) No. (%) | Primary composite outcome (urgent heart failure visit, hospitalization for heart failure or cardiovascular death), No. (%) (all patients, 10 mg once daily (N = 2373), median follow-up 18.2 months): 386 (16.3) No. (%) | hospitalizations for heart failure, total first and recurrent (all patients, dapagliflozin arm): 340 | Cardiovascular death or hospitalization for heart failure, Hazard Ratio (95% CI) (No T2DM): 0.73 (0.60-0.89) | Cardiovascular death, Hazard Ratio (95% CI) (No T2DM): 0.85 (0.66-1.10) | Death from any cause, Hazard Ratio (95% CI) (No T2DM): 0.88 (0.70-1.12) | Hospitalization for heart failure or an urgent heart failure visit, Hazard Ratio (95% CI) (No T2DM): 0.62 (0.48-0.80) | Hospitalization for heart failure, Hazard Ratio (95% CI) (No T2DM): 0.63 (0.48-0.81) | Primary composite outcome, Hazard Ratio (95% CI) (No T2DM): 0.73 (0.60 to 0.88) | Urgent heart failure visit, Hazard Ratio (95% CI) (No T2DM): 0.25 (0.07-0.89) | Worsening renal function (composite), Hazard Ratio (95% CI) (No T2DM): 0.67 (0.30-1.49) | Total number of (first and recurrent) heart failure hospitalizations and cardiovascular death, rate ratio (95% CI) (No T2DM): 0.73 (0.59, 0.91) | Cardiovascular death or hospitalization for heart failure, Hazard Ratio (95% CI) (T2DM): 0.75 (0.63-0.90) | Cardiovascular death, Hazard Ratio (95% CI) (T2DM): 0.79 (0.63-1.01) | Death from any cause, Hazard Ratio (95% CI) (T2DM): 0.78 (0.63-0.97) | Hospitalization for heart failure or an urgent heart failure visit, Hazard Ratio (95% CI) (T2DM): 0.77 (0.61-0.95) | Hospitalization for heart failure, Hazard Ratio (95% CI) (T2DM): 0.76 (0.61-0.95) | Primary composite outcome, Hazard Ratio (95% CI) (T2DM): 0.75 (0.63 to 0.90) | Urgent heart failure visit, Hazard Ratio (95% CI) (T2DM): 0.62 (0.24-1.59) | Worsening renal function (composite), Hazard Ratio (95% CI) (T2DM): 0.73 (0.39-1.34) | Total number of (first and recurrent) heart failure hospitalizations and cardiovascular death, rate ratio (95% CI) (T2DM): 0.77 (0.63, 0.94) | Cardiovascular death or hospitalization for heart failure, Hazard Ratio (95% CI) (all patients): 0.75 (0.65-0.85) | Cardiovascular death, Hazard Ratio (95% CI) (all patients): 0.82 (0.69-0.98) | Death from any cause, Hazard Ratio (95% CI) (all patients): 0.83 (0.71-0.97) | Hospitalization for heart failure or an urgent heart failure visit, Hazard Ratio (95% CI) (all patients): 0.70 (0.59-0.83) | Hospitalization for heart failure, Hazard Ratio (95% CI) (all patients): 0.70 (0.59-0.83) | Primary composite outcome, Hazard Ratio (95% CI) (all patients): 0.74 (0.65-0.85) | Urgent heart failure visit, Hazard Ratio (95% CI) (all patients): 0.43 (0.20-0.90) | Worsening renal function (composite), Hazard Ratio (95% CI) (all patients): 0.71 (0.44-1.16) | Total number of (first and recurrent) heart failure hospitalizations and cardiovascular death, rate ratio (95% CI) (all patients): 0.75 (0.65-0.88)‡ | Total number of (first and recurrent) heart failure hospitalizations and cardiovascular death, rate ratio (95% CI) [2]: 0.75 | Cardiovascular death or hospitalization for heart failure, Hazard Ratio (95% CI) [2]: 0.75 | Cardiovascular death, Hazard Ratio (95% CI) [2]: 0.82 | Death from any cause, Hazard Ratio (95% CI) [2]: 0.83 | Hospitalization for heart failure, Hazard Ratio (95% CI) [2]: 0.70 | Primary composite outcome, Hazard Ratio (95% CI) [2]: 0.74 | Worsening renal function (composite), Hazard Ratio (95% CI) [2]: 0.71 | HR (95% CI) for primary outcome of CV death or worsening HF (highest tertile of baseline KCCQ-TSS (>87.5)): 0.62 (0.46-0.83) | HR (95% CI) for primary outcome of CV death or worsening HF (lowest tertile of baseline KCCQ-TSS (≤65.6)): 0.70 (0.57-0.86) | HR (95% CI) for primary outcome of CV death or worsening HF (middle tertile of baseline KCCQ-TSS (65.7-87.5)): 0.77 (0.61-0.98) | numbers of patients who would need to have been treated to prevent one primary event (over the duration of the trial): 21 | hazard ratio for the primary outcome (patients without diabetes, highest third of glycated hemoglobin (≥6.0%), dapagliflozin versus placebo): 0.72 (0.52, 1.00) | hazard ratio for the primary outcome (patients without diabetes, lowest third of glycated hemoglobin (≤5.6%), dapagliflozin versus placebo): 0.74 (95% CI 0.53, 1.04) | hazard ratio for the primary outcome (patients without diabetes, middle third of glycated hemoglobin (>5.6-<6.0%), dapagliflozin versus placebo): 0.71 (0.48, 1.04) | hazard ratio for the primary outcome (post hoc subgroup: patients not taking sacubitril-valsartan, dapagliflozin to placebo): 0.74 | hazard ratio for the primary outcome (post hoc subgroup: patients taking sacubitril-valsartan at baseline, dapagliflozin to placebo): 0.75
